Laboratory results from PubChem BioAssay AID248 (DTP/NCI, 2004).
Values joined by “and” are separate entries in the source; they are usually repeats but may differ in a detail not shown here. Equal values may be shown once. Inconclusive results and toxic doses are left out.

Test system: L1210 leukemia ip in BDF1 mice, survival T/C
Test: NCI In Vivo Anticancer Drug Screen. Data for tumor model L1210 Leukemia (intraperitoneal) in B6D2F1 (BDF1) mice
Details: endpoint: mean survival time, higher = longer survival
Procedure, shortened: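 Transplanted-tumor mice were given test agent; controls received vehicle only. Survival readings from the two groups were divided (treated over control).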

Q: For `C[NH-].C[NH-].[Cl][Pt+2][Cl]`, which T/C (dose: 0.38 mg/kg/injection, schedule: Q03HX024 (ip), vehicle: water) is on record?
A: The T/C was 111 % of control.

Q: What about the T/C (dose: 0.75 mg/kg/injection, schedule: Q03HX024 (ip), vehicle: water) of the same compound?
A: The T/C was 109 % of control.

Q: What about the T/C (dose: 1.0 mg/kg/injection, schedule: Q01DX009 (ip), vehicle: other) of the same compound?
A: The T/C was 108 % of control.

Q: What about the T/C (dose: 1.5 mg/kg/injection, schedule: Q03HX024 (ip), vehicle: water) of the same compound?
A: Its T/C is 107 % of control.

Q: What about the T/C (dose: 1.56 mg/kg/injection, schedule: Q03HX008 (ip), vehicle: water) of the same compound?
A: Its T/C is 106 % of control.

Q: What about the T/C (dose: 2.0 mg/kg/injection, schedule: Q01DX001 (ip), vehicle: other) of the same compound?
A: Its T/C is 108 % of control.

Q: What about the T/C (dose: 2.0 mg/kg/injection, schedule: Q01DX009 (ip), vehicle: other) of the same compound?
A: Its T/C is 122 % of control.

Q: What about the T/C (dose: 2.5 mg/kg/injection, schedule: Q01DX009 (ip), vehicle: water) of the same compound?
A: The T/C was 110 % of control.

Q: And the T/C (dose: 2.6 mg/kg/injection, schedule: Q01DX009 (ip), vehicle: saline with Tween-80)?
A: Its T/C is 113 % of control.

Q: And the T/C (dose: 3.0 mg/kg/injection, schedule: Q04DX003 (ip), vehicle: water)?
A: The T/C was 116 % of control.

Q: What about the T/C (dose: 3.13 mg/kg/injection, schedule: Q03HX008 (ip), vehicle: water) of the same compound?
A: The T/C was 115 % of control.

Q: What about the T/C (dose: 4.0 mg/kg/injection, schedule: Q01DX001 (ip), vehicle: other) of the same compound?
A: Its T/C is 95 % of control.

Q: What about the T/C (dose: 4.0 mg/kg/injection, schedule: Q01DX009 (ip), vehicle: other) of the same compound?
A: Its T/C is 116 % of control.

Q: And the T/C (dose: 4.0 mg/kg/injection, schedule: Q01DX009 (ip), vehicle: saline with Tween-80)?
A: The T/C was 124 % of control.

Q: What about the T/C (dose: 5.0 mg/kg/injection, schedule: Q04DX003 (ip), vehicle: saline with Tween-80) of the same compound?
A: The T/C was 115 % of control and 120 % of control.

Q: And the T/C (dose: 6.0 mg/kg/injection, schedule: Q04DX003 (ip), vehicle: water)?
A: The T/C was 123 % of control.

Q: What about the T/C (dose: 8.0 mg/kg/injection, schedule: Q01DX001 (ip), vehicle: other) of the same compound?
A: Its T/C is 105 % of control.

Q: And the T/C (dose: 8.0 mg/kg/injection, schedule: Q04DX003 (ip), vehicle: saline with Tween-80)?
A: Its T/C is 123 % of control.

Q: What about the T/C (dose: 9.0 mg/kg/injection, schedule: Q01DX009 (ip), vehicle: saline with Tween-80) of the same compound?
A: The T/C was 108 % of control.

Q: And the T/C (dose: 12.0 mg/kg/injection, schedule: Q04DX003 (ip), vehicle: saline with Tween-80)?
A: Its T/C is 164 % of control.

Q: And the T/C (dose: 12.5 mg/kg/injection, schedule: Q01DX009 (ip), vehicle: saline with Tween-80)?
A: Its T/C is 98 % of control and 90 % of control.

Q: What about the T/C (dose: 16.0 mg/kg/injection, schedule: Q01DX001 (ip), vehicle: other) of the same compound?
A: The T/C was 123 % of control.

Q: What about the T/C (dose: 16.0 mg/kg/injection, schedule: Q01DX009 (ip), vehicle: other) of the same compound?
A: Its T/C is 90 % of control.

Q: And the T/C (dose: 25.0 mg/kg/injection, schedule: Q01DX001 (ip), vehicle: water)?
A: Its T/C is 120 % of control.

Q: What about the T/C (dose: 32.0 mg/kg/injection, schedule: Q01DX001 (ip), vehicle: other) of the same compound?
A: Its T/C is 119 % of control.

Q: What about the T/C (dose: 50.0 mg/kg/injection, schedule: Q04DX003 (ip), vehicle: saline with Tween-80) of the same compound?
A: Its T/C is 88 % of control.

Q: With `CC(=O)Nc1ccc2c(c1)C(=O)NC2=O` as the compound, how does the T/C (dose: 100.0 mg/kg/injection, schedule: Q01DX001 (ip), vehicle: Klucel (hydroxypropylcellulose) (HPC)) read?
A: Its T/C is 93 % of control.

Q: What about the T/C (dose: 200.0 mg/kg/injection, schedule: Q01DX001 (ip), vehicle: Klucel (hydroxypropylcellulose) (HPC)) of the same compound?
A: The T/C was 90 % of control.

Q: What about the T/C (dose: 400.0 mg/kg/injection, schedule: Q01DX001 (ip), vehicle: Klucel (hydroxypropylcellulose) (HPC)) of the same compound?
A: Its T/C is 90 % of control.

Q: For `CC(=O)OC1CCC2(C)C3=C(CCC2C1(C)C)C1CCC(C(C)CCC=C(C)C)C1(C)CC3` (stereo not given), which T/C (dose: 100.0 mg/kg/injection, schedule: Q04DX003 (ip), vehicle: Klucel (hydroxypropylcellulose) (HPC)) is on record?
A: Its T/C is 96 % of control.

Q: What about the T/C (dose: 200.0 mg/kg/injection, schedule: Q04DX003 (ip), vehicle: Klucel (hydroxypropylcellulose) (HPC)) of the same compound?
A: Its T/C is 96 % of control.

Q: For `C=CS(=O)(=O)CCCCCCCC`, which T/C (dose: 75.0 mg/kg/injection, schedule: Q01DX001 (ip), vehicle: saline) is on record?
A: Its T/C is 97 % of control.

Q: What about the T/C (dose: 75.0 mg/kg/injection, schedule: Q04DX003 (ip), vehicle: other) of the same compound?
A: Its T/C is 92 % of control.

Q: What about the T/C (dose: 150.0 mg/kg/injection, schedule: Q01DX001 (ip), vehicle: saline) of the same compound?
A: The T/C was 89 % of control.

Q: What about the T/C (dose: 150.0 mg/kg/injection, schedule: Q04DX003 (ip), vehicle: other) of the same compound?
A: Its T/C is 100 % of control.

Q: And the T/C (dose: 300.0 mg/kg/injection, schedule: Q01DX001 (ip), vehicle: saline)?
A: Its T/C is 91 % of control.

Q: And the T/C (dose: 300.0 mg/kg/injection, schedule: Q04DX003 (ip), vehicle: other)?
A: Its T/C is 89 % of control.

Q: What does the source list for `CSc1ncc(C(N)=O)c(N)n1`?
A: T/C (dose: 222.0 mg/kg/injection, schedule: Q01DX Z (ip), vehicle: saline): 102 % of control; T/C (dose: 333.0 mg/kg/injection, schedule: Q01DX Z (ip), vehicle: saline): 89 % of control; T/C (dose: 500.0 mg/kg/injection, schedule: Q01DX Z (ip), vehicle: saline): 95 % of control
